Tests used:
arrowleaf sida = assay: Test C postemergence arrowleaf sida; format: in vivo, Sida rhombifolia; settings: 0 to 100 scale, 0 no effect, 100 complete control
Procedure, shortened: (§1)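 Scores (0 = no effect, 100 = complete control) come from visual comparison with untreated controls after about 14–21 days. Spray formulation was a non-phytotoxic solvent mixture including surfactant; plants grew in a 60:40 sandy loam–potting mix blend.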

field bindweed = assay: Test C postemergence field bindweed; format: in vivo, Convolvulus arvensis; settings: 0 to 100 scale, 0 no effect, 100 complete control
Procedure, shortened: as §1

giant foxtail = assay: Test C postemergence giant foxtail; format: in vivo, Setaria faberii; settings: 0 to 100 scale, 0 no effect, 100 complete control
Protocol: (§2) Compounds evaluated in this test were formulated in a non-phytotoxic solvent mixture which included a surfactant and applied to plants that were grown for various periods of time before treatment (postemergence application). A mixture of sandy loam soil and greenhouse potting mix in a 60:40 ratio was used for the postemergence test.
(§3) Plantings of these crops and weed species were adjusted to produce plants of appropriate size for the postemergence test. All plant species were grown using normal greenhouse practices. Crop and weed species include arrowleaf sida (Sida rhombifolia), barnyardgrass (Echinochloa crus-galli), cocklebur (Xanthium strumarium), common ragweed (Ambrosia elatior), corn (Zea mays), cotton (Gossypium hirsutum), eastern black nightshade (Solanum ptycanthum), fall panicum (Panicum dichotomiflorum), field bindweed (Convolvulus arvensis), giant foxtail (Setaria faberii), hairy beggarticks (Bidens pilosa), ivyleaf morningglory (Ipomoea hederacea), johnsongrass (Sorghum halepense), ladysthumb smartweed (Polygonum persicaria), lambsquarters (Chenopodium album), large crabgrass (Digitaria sanguinalis), purple nutsedge (Cyperus rotundus), redroot pigweed (Amaranthus retroflexus), soybean (Glycine max), surinam grass (Brachiaria decumbens), velvetleaf (Abutilon theophrasti) and wild poinsettia (Euphorbia heterophylla).
(§4) Treated plants and untreated controls were maintained in a greenhouse for approximately 14, to 21 days, after which all treated plants were compared to untreated controls and visually evaluated. Plant response ratings, summarized in Table C, were based upon a 0 to 100 scale where 0 was no effect and 100 was complete control. A dash response (−) means no test result.

johnsongrass = assay: Test C postemergence johnsongrass; format: in vivo, Sorghum halepense; settings: 0 to 100 scale, 0 no effect, 100 complete control
Protocol: as §2, §3, §4

black nightshade = assay: Test E black nightshade; format: in vivo, Solanum nigra; settings: Postemergence; for Plant response rating, Blk nightshade: 0 to 100 scale; for Blk nightshade plant response rating: Rate 250 g/ha, 0 to 100 scale where 0 is no effect and 100 is complete control
Protocol: Compounds evaluated in this test were formulated in a non-phytotoxic solvent mixture which included a surfactant and applied to plants that were in the 1- to 4-leaf stage (postemergence application). A mixture of sandy loam soil and greenhouse potting mix in a 60:40 ratio was used for the postemergence test.
(§5) Plantings of these crops and weed species were adjusted to produce plants of appropriate size for the postemergence test. All plant species were grown using normal greenhouse practices. Crop and weed species include annual bluegrass (Poa annua), blackgrass (Alopecurus myosuroides), black nightshade (Solanum nigra), chickweed (Stellaria media), common poppy (Papaver rhoeas), deadnettle (Lamium amplexicaule), downy brome (Bromus tectorum), field violet (Viola arvensis), galium (Galium aparine), green foxtail (Setaria viridis), Italian ryegrass (Lolium multiflorum), jointed goatgrass (Aegilops cylindrica), kochia (Kochia scoparia), lambsquarters (Chenopodium album), littleseed canarygrass (Phalaris minor), rape (Brassica napus), redroot pigweed (Amaranthus retroflexus), Russian thistle (Salsola kali), scentless chamomile (Matricaria inodora), spring barley (Hordeum vulgare), sugar beet (Beta vulgaris), sunflower (Helianthus annuus), ivyleaf speedwell (Veronica hederaefolia), spring wheat (Triticum aestivum), winter wheat (Triticum aestivum), wild buckwheat (Polygonum convolvulus), wild mustard (Sinapis arvensis), wild oat (Avena fatua), windgrass (Apera spica-venti) and winter barley (Hordeum vulgare).
(§6) Treated plants and untreated controls were maintained in a greenhouse for approximately 21 to 28 days, after which all treated plants were compared to untreated controls and visually evaluated. […] A dash response (-) means no test result.

sunflower [1] = assay: Test E sunflower; format: in vivo, Helianthus annuus; settings: Postemergence; for Plant response rating, Sunflower: 0 to 100 scale; for Sunflower plant response rating: Rate 250 g/ha, 0 to 100 scale where 0 is no effect and 100 is complete control
Protocol: as §5, with “Plantings of these crops and weed species were adjusted to produce plants of appropriate size for the postemergence test.” left out
as §6

kochia = assay: Test E kochia; format: in vivo, Kochia scoparia; settings: Preemergence; for Kochia plant response rating (0 to 100 scale): Rate 250 g/ha
sunflower [2] = assay: Test E sunflower; format: in vivo, Helianthus annuus; settings: Preemergence; for Sunflower plant response rating (0 to 100 scale): Rate 250 g/ha
bermuda-grass = assay: Test D bermudagrass; format: in vivo, Cynodon dactylon; settings: Postemergence, 0 to 100 scale
common groundsel = assay: Test D common groundsel; format: in vivo, Senecio vulgaris; settings: Postemergence, 0 to 100 scale
large crabgrass = assay: Test D large crabgrass; format: in vivo, Digitaria sanguinalis; settings: Postemergence, 0 to 100 scale
tall mallow = assay: Test D tall mallow; format: in vivo, Malva sylvestris; settings: Postemergence, 0 to 100 scale
Green foxtail = assay: Test D green foxtail; format: in vivo; settings: Postemergence, 0 to 100 scale, 0 no injury, 100 complete control
[3] = Rate 125 g/ha, 0 to 100 scale (0 no effect, 100 complete control)
[4] = Rate 125 g/ha, 0 is no effect, 100 is complete control
[5] = Rate 500 g/ha, 0 is no effect, 100 is complete control
[6] = Rate 16 g/ha, 0 no injury, 100 complete control
[7] = Rate 32 g/ha, 0 no injury, 100 complete control
[8] = Rate 64 g/ha, 0 no injury, 100 complete control
[9] = Rate 125 g/ha, 0 no injury, 100 complete control
[10] = Rate 500 g/ha, 0 to 100 scale where 0 is no effect and 100 is complete control

CC(C)N(C(=O)n1oc(=O)n(C)c1=O)c1ccc(F)cc1 [Compound 138]
Plant response rating Arrowleaf sida (arrowleaf sida; Rate 140 g/ha): 0
Plant response rating Arrowleaf sida (arrowleaf sida; Rate 1120 g/ha): 70
Plant response rating Field bindweed (field bindweed; Rate 140 g/ha): 0
Plant response rating Field bindweed (field bindweed; Rate 280 g/ha): 0
Plant response rating Field bindweed (field bindweed; Rate 560 g/ha): 0
Plant response rating Field bindweed (field bindweed; Rate 1120 g/ha): 50
Plant response rating, Giant foxtail (giant foxtail; Rate 140 g/ha): 0
Plant response rating, Giant foxtail (giant foxtail; Rate 280 g/ha): 15
Plant response rating, Giant foxtail (giant foxtail; Rate 560 g/ha): 80
Plant response rating, Giant foxtail (giant foxtail; Rate 1120 g/ha): 85
Plant response rating, Johnsongrass (johnsongrass; Rate 140 g/ha): 0
Plant response rating, Johnsongrass (johnsongrass; Rate 280 g/ha): 20
Plant response rating, Johnsongrass (johnsongrass; Rate 560 g/ha): 60
Plant response rating, Johnsongrass (johnsongrass; Rate 1120 g/ha): 90
Plant response rating, Blk nightshade (black nightshade; Rate 125 g/ha): 20
Blk nightshade plant response rating (black nightshade): 60
Plant response rating, Sunflower (sunflower [1]; Rate 125 g/ha): 0
Sunflower plant response rating (sunflower [1]): 0
Plant response rating, Kochia (kochia; [3]): 20
Kochia plant response rating (0 to 100 scale) (kochia): 40
Plant response rating, Sunflower (sunflower [2]; [3]): 55
Sunflower plant response rating (0 to 100 scale) (sunflower [2]): 60

CC(C)N(C(=O)n1oc(=O)n(C2CC2)c1=O)c1ccc(F)cc1 [Compound 242]
Plant response rating Arrowleaf sida (arrowleaf sida; Rate 140 g/ha): 10
Plant response rating Arrowleaf sida (arrowleaf sida; Rate 280 g/ha): 30
Plant response rating Arrowleaf sida (arrowleaf sida; Rate 560 g/ha): 70
Plant response rating Arrowleaf sida (arrowleaf sida; Rate 1120 g/ha): 90
Plant response rating Field bindweed (field bindweed; Rate 140 g/ha): 0
Plant response rating Field bindweed (field bindweed; Rate 560 g/ha): 0
Plant response rating Field bindweed (field bindweed; Rate 1120 g/ha): 0
Plant response rating, Giant foxtail (giant foxtail; Rate 140 g/ha): 40
Plant response rating, Giant foxtail (giant foxtail; Rate 280 g/ha): 60
Plant response rating, Giant foxtail (giant foxtail; Rate 560 g/ha): 80
Plant response rating, Giant foxtail (giant foxtail; Rate 1120 g/ha): 85
Plant response rating, Johnsongrass (johnsongrass; Rate 140 g/ha): 45
Plant response rating, Johnsongrass (johnsongrass; Rate 280 g/ha): 45
Plant response rating, Johnsongrass (johnsongrass; Rate 560 g/ha): 60
Plant response rating, Johnsongrass (johnsongrass; Rate 1120 g/ha): 90
Plant response rating, Blk nightshade (black nightshade; Rate 62 g/ha): 60
Plant response rating, Blk nightshade (black nightshade; [4]): 30
Blk nightshade plant response rating (black nightshade): 50
Plant response rating, Blk nightshade (black nightshade; [5]): 75
Plant response rating, Sunflower (sunflower [1]; Rate 62 g/ha): 10
Plant response rating, Sunflower (sunflower [1]; [4]): 10
Sunflower plant response rating (sunflower [1]): 0
Plant response rating, Sunflower (sunflower [1]; [5]): 20
Plant response rating, Bermudagrass (bermuda-grass; [6]): 90
Plant response rating, Bermudagrass (bermuda-grass; [7]): 100
Plant response rating, Bermudagrass (bermuda-grass; [8]): 100
Plant response rating, Bermudagrass (bermuda-grass; [9]): 100
Plant response rating, Bermudagrass (bermuda-grass; Rate 250 g/ha): 100
Plant response rating, Com. groundsel (common groundsel; [6]): 0
Plant response rating, Com. groundsel (common groundsel; [7]): 100
Plant response rating, Com. groundsel (common groundsel; [8]): 90
Plant response rating, Com. groundsel (common groundsel; [9]): 90
Plant response rating, Com. groundsel (common groundsel; Rate 250 g/ha): 100
Plant response rating, Large crabgrass (large crabgrass; [6]): 0
Plant response rating, Large crabgrass (large crabgrass; [7]): 100
Plant response rating, Large crabgrass (large crabgrass; [8]): 100
Plant response rating, Large crabgrass (large crabgrass; [9]): 100
Plant response rating, Large crabgrass (large crabgrass; Rate 250 g/ha): 100
Plant response rating, Tall Mallow (tall mallow; [6]): 0
Plant response rating, Tall Mallow (tall mallow; [7]): 0
Tall Mallow plant response rating (tall mallow; [8]): 50
Tall Mallow plant response rating (tall mallow; [9]): 90
Plant response rating, Tall Mallow (tall mallow; Rate 250 g/ha): 100
Plant response rating, Kochia (kochia; [3]): 35
Kochia plant response rating (0 to 100 scale) (kochia): 50
Plant response rating, Kochia (kochia; [10]): 60
Plant response rating, Sunflower (sunflower [2]; [3]): 55
Sunflower plant response rating (0 to 100 scale) (sunflower [2]): 70
Plant response rating, Sunflower (sunflower [2]; [10]): 60
Green foxtail plant response rating (Green foxtail; Rate 64 g/ha): 100
Green foxtail plant response rating (Green foxtail; Rate 125 g/ha): 100

CC(C)N(C(=O)n1oc(=O)n(C2CCCCCC2)c1=O)c1ccc(F)cc1F [Compound 342]
Plant response rating, Bermudagrass (bermuda-grass; [6]): 20
Plant response rating, Bermudagrass (bermuda-grass; [7]): 30
Plant response rating, Bermudagrass (bermuda-grass; [8]): 90
Plant response rating, Bermudagrass (bermuda-grass; [9]): 100
Plant response rating, Bermudagrass (bermuda-grass; Rate 250 g/ha): 100
Plant response rating, Com. groundsel (common groundsel; [7]): 0
Plant response rating, Com. groundsel (common groundsel; [9]): 0
Plant response rating, Com. groundsel (common groundsel; Rate 250 g/ha): 0
Plant response rating, Large crabgrass (large crabgrass; [6]): 0
Plant response rating, Large crabgrass (large crabgrass; [7]): 0
Plant response rating, Large crabgrass (large crabgrass; [8]): 40
Plant response rating, Large crabgrass (large crabgrass; [9]): 100
Plant response rating, Large crabgrass (large crabgrass; Rate 250 g/ha): 100
Plant response rating, Tall Mallow (tall mallow; [6]): 0
Plant response rating, Tall Mallow (tall mallow; [7]): 0
Tall Mallow plant response rating (tall mallow; [8]): 0
Tall Mallow plant response rating (tall mallow; [9]): 0
Plant response rating, Tall Mallow (tall mallow; Rate 250 g/ha): 10
Green foxtail plant response rating (Green foxtail; Rate 64 g/ha): 0
Green foxtail plant response rating (Green foxtail; Rate 125 g/ha): 60
